Calls of active or inactive are those of the source. The rule behind the calls is not given here.
Assays:
PC-3 [1] = assay: Induction of apoptosis in human PC-3 cells assessed as viable cells at 0.08 uM incubated for 24 hrs by Annexin V-FITC and PI staining based flow cytometry (reference value: 97.5%); format: functional; settings: read-out: Activity
PC-3 [2] = assay: Antitumor activity against human PC-3 cells xenografted in BALB/c nude mouse assessed as tumor growth inhibition at 20 mg/kg, iv administered every 2 days and measured after 3 weeks; format: functional; settings: PC-3, 48 h, time 2 day, read-out: TGI
PC-3 [3] = assay: Induction of ROS generation in human PC-3 cells at 0.08 uM incubated for 24 hrs by DCFH-DA staining based flow cytometry analysis (reference value: 2.63%); format: functional
[4] = Toxicity in BALB/c nude mouse xenografted with human PC-3 cells assessed as heart damage at 10 to 20 mg/kg, iv administered every 2 days and measured after 3 weeks; format: organism-based; settings: in vivo, 504 h, dose 10-20 mg/kg
Tubulin (Homo sapiens) [5] = molecular target: T1, Tubulin (Homo sapiens) (UniProt P68371+Q9H4B7+P0DPH7+P68366+Q13509+Q71U36+P04350+Q3ZCM7+P07437+P68363+Q9BQE3+Q6PEY2+Q13885+Q9BVA1+Q9BUF5); assay: Binding affinity to tubulin colchicine binding site in human PC-3 cells assessed as reduction in beta-tubulin adduct formation at 5 uM preincubated for 2 hrs followed by EBI addition and measured after 1.5 hrs by Western blotting assay; format: cell-based; design: scale not given: the % may be the effect or the level left; settings: time 3.5 hrs
[6] = Toxicity in BALB/c nude mouse xenografted with human PC-3 cells assessed as kidney damage at 10 to 20 mg/kg, iv administered every 2 days and measured after 3 weeks; format: organism-based; settings: in vivo, 504 h, dose 10-20 mg/kg
PC-3 [7] = assay: Induction of apoptosis in human PC-3 cells assessed as upregulation of cleaved caspase-3 expression at 0.08 to 0.32 uM by Western blotting analysis; format: functional, cell-based; settings: dose 0.08-0.32 µM
PC-3 [8] = assay: Induction of mitochondrial membrane potential loss in human PC-3 cells assessed as increase in monomer JC-1 level by measuring green fluorescence intensity at 0.08 uM incubated for 24 hrs by JC-1 staining based flow cytometry analysis (reference value: 6.44%); format: functional
A549 = assay: Cytotoxicity against human A549 cells incubated for 72 hrs by MTT assay; settings: A549, 72 h
[9] = Clearance in Sprague-Dawley rat at 2 mg/kg, iv measured upto 24 hrs by HPLC-MS analysis; format: ADME, organism-based; settings: in vivo
Histone deacetylase 1 = Histone deacetylase 1 (Homo sapiens, UniProt Q13547); assay: Inhibition of HDAC1 in human HeLa nuclear extracts incubated for 30 mins by fluorescence based assay; format: cell-free
Histone deacetylase 1, sequence (Q13547 whole entry): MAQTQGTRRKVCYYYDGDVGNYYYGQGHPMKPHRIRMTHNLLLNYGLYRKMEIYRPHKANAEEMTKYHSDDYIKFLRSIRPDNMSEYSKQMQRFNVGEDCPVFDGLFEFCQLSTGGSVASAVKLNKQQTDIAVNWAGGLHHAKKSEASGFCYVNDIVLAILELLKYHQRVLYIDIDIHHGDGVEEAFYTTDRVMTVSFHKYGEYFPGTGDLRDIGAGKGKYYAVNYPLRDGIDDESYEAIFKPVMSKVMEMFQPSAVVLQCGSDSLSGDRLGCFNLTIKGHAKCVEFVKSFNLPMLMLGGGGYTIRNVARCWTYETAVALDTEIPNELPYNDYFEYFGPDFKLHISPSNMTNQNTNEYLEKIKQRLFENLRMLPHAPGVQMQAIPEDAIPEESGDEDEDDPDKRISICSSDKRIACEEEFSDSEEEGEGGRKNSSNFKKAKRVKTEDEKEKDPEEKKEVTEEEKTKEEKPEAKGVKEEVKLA

[10] = AUC(0 to t) in Sprague-Dawley rat at 2 mg/kg, iv measured upto 24 hrs by HPLC-MS analysis; format: ADME, organism-based; settings: in vivo
PC-3 [11] = assay: Induction of apoptosis in human PC-3 cells assessed as upregulation of cleaved PARP expression at 0.08 to 0.32 uM by Western blotting analysis; format: functional, cell-based; settings: dose 0.08-0.32 µM
PC-3 [12] = assay: Inhibition of colony formation in human PC-3 cells at 40 nM incubated for 24 hrs followed by replacement with fresh media and measured after 2 weeks by crystal violet staining based assay; format: functional
PC-3 [13] = assay: Induction of apoptosis in human PC-3 cells assessed as necrotic cells at 0.16 uM incubated for 24 hrs by Annexin V-FITC and PI staining based flow cytometry (reference value: 0.13%); format: functional
PC-3 [14] = assay: Induction of apoptosis in human PC-3 cells assessed as downregulation of Bim expression at 0.08 to 0.32 uM by Western blotting analysis; format: functional, cell-based; settings: dose 0.08-0.32 µM
PC-3 [15] = assay: Induction of apoptosis in human PC-3 cells assessed as early apoptotic cells at 0.16 uM incubated for 24 hrs by Annexin V-FITC and PI staining based flow cytometry (reference value: 1.32%); format: functional
PC-3 [16] = assay: Induction of cell cycle arrest in human PC-3 cells assessed as decrease in phosphorylated Cdc25c at Ser216 by Western blotting analysis; format: functional, cell-based; settings: dose 0.08-0.32 µM
PC-3 [17] = assay: Induction of apoptosis in human PC-3 cells assessed as late apoptotic cells at 0.08 uM incubated for 24 hrs by Annexin V-FITC and PI staining based flow cytometry (reference value: 1.02%); format: functional
[18] = Half-life in Sprague-Dawley rat at 2 mg/kg, iv measured upto 24 hrs by HPLC-MS analysis; format: ADME, organism-based; settings: in vivo
PC-3 [19] = assay: Induction of mitochondrial membrane potential loss in human PC-3 cells incubated for 24 hrs by JC-1 staining based flow cytometry analysis; format: functional, cell-based; settings: dose 0.08-0.32 µM
Tubulin (Homo sapiens) [20] = molecular target: T1, Tubulin (Homo sapiens); assay: Inhibition of microtubule polymerization in human PC-3 cells assessed as disorganized microtubule filaments at 0.32 uM incubated for 6 hrs by immunofluorescent staining based confocal microscopy assay; format: cell-based
[21] = Toxicity in BALB/c nude mouse xenografted with human PC-3 cells assessed as spleen damage at 10 to 20 mg/kg, iv administered every 2 days and measured after 3 weeks; format: organism-based; settings: in vivo, 504 h, dose 10-20 mg/kg
[22] = MRT(0 to t) in Sprague-Dawley rat at 2 mg/kg, iv measured upto 24 hrs by HPLC-MS analysis; format: ADME, organism-based; settings: in vivo
PC-3 [23] = assay: Induction of mitochondrial membrane potential loss in human PC-3 cells assessed as decrease in JC-1 aggregate level by measuring red fluorescence intensity at 0.08 uM incubated for 24 hrs by JC-1 staining based flow cytometry analysis (reference value: 93.5%); format: functional; design: scale not given: the % may be the effect or the level left
PC-3 [24] = assay: Induction of apoptosis in human PC-3 cells assessed as viable cells at 0.16 uM incubated for 24 hrs by Annexin V-FITC and PI staining based flow cytometry (reference value: 97.5%); format: functional; settings: read-out: Activity
PC-3 [25] = assay: Induction of cell cycle arrest in human PC-3 cells assessed as decrease in phosphorylated […] Tyr15 by Western blotting analysis; format: functional, cell-based; settings: dose 0.08-0.32 µM

COc1ccc(/C=C/C(=O)c2ccc(OC)c3c2OC(C)(C)C=C3)cc1NCC(=O)NO
viability at 0.08 µM (PC-3 [1]): 94.8% | inhibition in vivo at 20 mg/kg (PC-3 [2]): 90.1% | Activity (PC-3 [3]): 45.7% | Activity [4]: Non-Toxic | Activity (Tubulin (Homo sapiens) [5]): 100% | Activity [6]: Non-Toxic | Activity (PC-3 [7]): Active | Activity (PC-3 [8]): 10.6% | IC50 (A549): 290 nM | clearance [9]: 5 mL/min/kg | IC50 (Histone deacetylase 1): 730 nM | AUCt [10]: 9084 µg/L/h | Activity (PC-3 [11]): Active | inhibition at 0.04 µM (PC-3 [12]): 100% | Activity (PC-3 [13]): 0.47% | Activity (PC-3 [14]): Active | Activity (PC-3 [15]): 15.5% | Activity (PC-3 [16]): Active | Activity (PC-3 [17]): 2.59% | half-life [18]: 0.91 h | Activity (PC-3 [19]): Dose-Dependent Effect | inhibition (Tubulin (Homo sapiens) [20]): Active | Activity [21]: Non-Toxic | MRT last at 24 h [22]: 1.32 h | Activity (PC-3 [23]): 88.4% | viability at 0.16 µM (PC-3 [24]): 78.8% | Activity (PC-3 [25]): Active

— ChEMBL document CHEMBL5506003, “Design and biological evaluation of dual tubulin/HDAC inhibitors based on millepachine for treatment of prostate cancer” (Eur J Med Chem, 2024)
